Experiment: Stability in rat plasma
Assay type: ADME, cell-free
Settings: not given

Row | Compound | Stability [%]
1 | CCN(CC)CC.Nc1ncnc2c1ncn2[C@@H]1O[C@H](COS(=O)(=O)NC(=O)c2ccccc2O)[C@@H](O)[C@H]1O | 100

Experiment: Stability in human plasma
Assay type: ADME, cell-free
Settings: not given

Row | Compound | Stability [%]
2 | CCN(CC)CC.Nc1ncnc2c1ncn2[C@@H]1O[C@H](COS(=O)(=O)NC(=O)c2ccccc2O)[C@@H](O)[C@H]1O | 100

Experiment: Efflux ratio of apparent permeability from basolateral to apical over apical to basolateral side in human Caco2 cells
Assay type: ADME, cell-based
Settings: caco-2

Row | Compound | Ratio
3 | CCC(=O)O[C@H]1[C@@H](F)[C@H](n2cnc3c(N)ncnc32)O[C@@H]1COS(=O)(=O)NC(=O)c1ccccc1O.CCN(CC)CC | 1.5 to 8.5
4 | CC(=O)O[C@H]1[C@@H](F)[C@H](n2cnc3c(N)ncnc32)O[C@@H]1COS(=O)(=O)NC(=O)c1ccccc1O.CCN(CC)CC | 1.5 to 8.5
5 | CCC(CC)C(=O)O[C@H]1[C@@H](F)[C@H](n2cnc3c(N)ncnc32)O[C@@H]1COS(=O)(=O)NC(=O)c1ccccc1O.CCN(CC)CC | 1.5 to 8.5
6 | CC(C)C(=O)O[C@H]1[C@@H](F)[C@H](n2cnc3c(N)ncnc32)O[C@@H]1COS(=O)(=O)NC(=O)c1ccccc1O.CCN(CC)CC | 1.5 to 8.5
7 | CCCCCCCC(=O)O[C@H]1[C@@H](F)[C@H](n2cnc3c(N)ncnc32)O[C@@H]1COS(=O)(=O)NC(=O)c1ccccc1O.CCN(CC)CC | 1.5 to 8.5
8 | CCCCC(=O)O[C@H]1[C@@H](F)[C@H](n2cnc3c(N)ncnc32)O[C@@H]1COS(=O)(=O)NC(=O)c1ccccc1O.CCN(CC)CC | 1.5 to 8.5
9 | CCCC(=O)O[C@H]1[C@@H](F)[C@H](n2cnc3c(N)ncnc32)O[C@@H]1COS(=O)(=O)NC(=O)c1ccccc1O.CCN(CC)CC | 1.5 to 8.5
10 | CCCCCCCCCCCC(=O)O[C@H]1[C@@H](F)[C@H](n2cnc3c(N)ncnc32)O[C@@H]1COS(=O)(=O)NC(=O)c1ccccc1O.CCN(CC)CC | 1.5 to 8.5
